{
  "source": "ChEMBL document CHEMBL4433266",
  "about": "“Design, synthesis and antimycobacterial activity of benzoxazinone derivatives and open-ring analogues: Preliminary data and computational analysis” (Bioorg Med Chem Lett, 2019)",
  "type_in_all_cases": "functional",
  "key": {"[1]": {"tested_on": "Mycobacterium tuberculosis", "experiment": "Antimycobacterial activity against Streptomycin-resistant Mycobacterium tuberculosis ATCC 35820 assessed as inhibition of bacterial cell growth incubated for 7 days by resazurin microtiter assay", "settings": "ATCC 35820, 168 h"}, "[2]": {"tested_on": "Mycobacterium tuberculosis", "experiment": "Antimycobacterial activity against Rifampicin-resistant Mycobacterium tuberculosis ATCC 35838 assessed as inhibition of bacterial cell growth incubated for 7 days by resazurin microtiter assay", "settings": "ATCC 35838, 168 h"}, "[3]": {"tested_on": "Mycobacterium tuberculosis", "experiment": "Antimycobacterial activity against Pyrazinamide-resistant Mycobacterium tuberculosis ATCC 35828 assessed as inhibition of bacterial cell growth incubated for 7 days by resazurin microtiter assay", "settings": "ATCC 35828, 168 h"}, "[4]": {"tested_on": "Mycobacterium tuberculosis", "experiment": "Antimycobacterial activity against Isoniazid-resistant Mycobacterium tuberculosis ATCC 35822 assessed as inhibition of bacterial cell growth incubated for 7 days by resazurin microtiter assay", "settings": "ATCC 35822, 168 h"}},
  "data": [
    {"smiles": "COC(=O)/C=C1\\Nc2ccccc2OC1=O", "values": [
      {"measurement": "MIC", "setting": "[1]", "result": 4.5, "unit": "µM"},
      {"measurement": "MIC", "setting": "[2]", "result": 9.1, "unit": "µM"},
      {"measurement": "MIC", "setting": "[3]", "result": 4.5, "unit": "µM"},
      {"measurement": "MIC", "setting": "[4]", "result": "> 146", "unit": "µM"}
    ]},
    {"smiles": "COC(=O)/C=C1\\Nc2cc(Cl)ccc2OC1=O", "values": [
      {"measurement": "MIC", "setting": "[1]", "result": 63, "unit": "µM"},
      {"measurement": "MIC", "setting": "[2]", "result": 63, "unit": "µM"},
      {"measurement": "MIC", "setting": "[3]", "result": 31, "unit": "µM"},
      {"measurement": "MIC", "setting": "[4]", "result": "> 126", "unit": "µM"}
    ]},
    {"smiles": "COC(=O)/C=C1\\Nc2ccc(Cl)cc2OC1=O", "values": [
      {"measurement": "MIC", "setting": "[1]", "result": 3.9, "unit": "µM"},
      {"measurement": "MIC", "setting": "[2]", "result": 3.9, "unit": "µM"},
      {"measurement": "MIC", "setting": "[3]", "result": 3.9, "unit": "µM"},
      {"measurement": "MIC", "setting": "[4]", "result": "> 126", "unit": "µM"}
    ]},
    {"smiles": "O=C1Oc2ccccc2N/C1=C\\C(=O)c1c[nH]c2ccccc12", "values": [
      {"measurement": "MIC", "setting": "[1]", "result": 3.3, "unit": "µM"},
      {"measurement": "MIC", "setting": "[2]", "result": 3.3, "unit": "µM"},
      {"measurement": "MIC", "setting": "[3]", "result": 3.3, "unit": "µM"},
      {"measurement": "MIC", "setting": "[4]", "result": "> 105", "unit": "µM"}
    ]},
    {"smiles": "O=C1Oc2ccccc2N/C1=C\\C(=O)c1cccs1", "values": [
      {"measurement": "MIC", "setting": "[1]", "result": 14.7, "unit": "µM"},
      {"measurement": "MIC", "setting": "[2]", "result": 14.7, "unit": "µM"},
      {"measurement": "MIC", "setting": "[3]", "result": 14.7, "unit": "µM"},
      {"measurement": "MIC", "setting": "[4]", "result": 118, "unit": "µM"}
    ]},
    {"smiles": "O=C1Oc2ccccc2N/C1=C\\C(=O)N1CCOCC1", "values": [
      {"measurement": "MIC", "setting": "[1]", "result": 7.3, "unit": "µM"},
      {"measurement": "MIC", "setting": "[2]", "result": 7.3, "unit": "µM"},
      {"measurement": "MIC", "setting": "[3]", "result": 3.6, "unit": "µM"},
      {"measurement": "MIC", "setting": "[4]", "result": "> 117", "unit": "µM"}
    ]},
    {"smiles": "O=C(NNC(=O)c1ccncc1)C(=O)Nc1ccccc1O", "values": [
      {"measurement": "MIC", "setting": "[1]", "result": 26.7, "unit": "µM"},
      {"measurement": "MIC", "setting": "[2]", "result": 3.3, "unit": "µM"},
      {"measurement": "MIC", "setting": "[3]", "result": 6.7, "unit": "µM"},
      {"measurement": "MIC", "setting": "[4]", "result": "> 106", "unit": "µM"}
    ]},
    {"smiles": "O=C(NNC(=O)c1ccncc1)C(=O)Nc1ccc(Cl)cc1O", "values": [
      {"measurement": "MIC", "setting": "[1]", "result": 24, "unit": "µM"},
      {"measurement": "MIC", "setting": "[2]", "result": 12, "unit": "µM"},
      {"measurement": "MIC", "setting": "[3]", "result": 12, "unit": "µM"},
      {"measurement": "MIC", "setting": "[4]", "result": "> 96", "unit": "µM"}
    ]},
    {"smiles": "O=C(NNC(=O)c1ccncc1)C(=O)Nc1cc(Cl)ccc1O", "values": [
      {"measurement": "MIC", "setting": "[1]", "result": 24, "unit": "µM"},
      {"measurement": "MIC", "setting": "[2]", "result": 12, "unit": "µM"},
      {"measurement": "MIC", "setting": "[3]", "result": 12, "unit": "µM"},
      {"measurement": "MIC", "setting": "[4]", "result": "> 96", "unit": "µM"}
    ]},
    {"smiles": "NNC(=O)c1ccncc1", "note": "[ISONIAZID]", "values": [
      {"measurement": "MIC", "setting": "[1]", "result": 1.8, "unit": "µM"},
      {"measurement": "MIC", "setting": "[2]", "result": 1.8, "unit": "µM"},
      {"measurement": "MIC", "setting": "[3]", "result": 1.8, "unit": "µM"},
      {"measurement": "MIC", "setting": "[4]", "result": "> 233", "unit": "µM"}
    ]}
  ]
}
